The nature of data set [1]: Acute peroral toxicity in mice. Conditions: mouse, in vivo, po.
Another data set deals with Staph. aureus. Description: Inhibition of growth in aqueous solution and subcultivation in liquid medium, Staph. aureus. It is filed as cell-based. Conditions: Reference: Chlorohexidine=1. The text has this: (§1) Inhibition of growth in aqueous solution and subcultivation in liquid medium. Reference: Chlorohexidine=1.
The subject of the next data set is Aerobacter aerogenes. Description: Inhibition of growth in aqueous solution and subcultivation in liquid medium, Aerobacter aerogenes. The conditions noted are these: Reference: Chlorohexidine=1. It is filed as cell-based.
From the text: as §1

In data set [2] the test system is plaque. The data set can be described thus: Plaque-index on test persons after mouth rinsing. It is filed as in vivo. The conditions noted are these: rinsing with 10 ml of 1,1 mM solution 3 times daily for 3 days; scale 0 (no plaque) to 3 (clearly visible plaque marginally). The protocol: Plaque-index on test persons after rinsing with 10 ml of 1,1 mM solution 3 times daily for 3 days. The rinsing was during this time the only type of oral hygiene used.
Plaque-index, which is a recognized measure of plaque-inhibiting property, runs from 0 (no plaque) to 3 (clearly visible plaque marginally).

Another data set concerns human epithelial cells. The data set can be described thus: Cytotoxic effect on human epithelial cells in vitro. It is filed as cell-based. On the procedure: Cytotoxic effect on human epithelial cells in vitro after treatment for 5 minutes at 37° C. Reference: Chlorohexidine=1.
In another data set the test system is bacteria. Conditions: cited from earlier work.
Data set [3] concerns plaque. Description: Plaque-index on test persons after mouth rinsing. In kind it is in vivo. The conditions noted are these: rinsing with 1,6 mM chlorohexidine under the same conditions; scale 0 to 3.
Data set [4] deals with plaque. Conditions: rinsing of the mouth; cited from earlier work.
Where [5] appears, read: treatment for 5 minutes at 37° C., Reference: Chlorohexidine=1.

Each structure is given as a SMILES string. Counter-ions that a name gives are not always drawn. Like-named read-outs stand apart in the source and are kept apart here.

The text below walks through data of US4022834A, “Antibacterially active hexamethylene-bis-biguanides” (priority 1972, dated 1977).

By LD50 is commonly meant the dose at which mortality reaches 50%. A low value points to a more toxic substance. As for `[H]/N=C(\N/C(=N/[H])NCCCCCCNC(=N)NC(=N)Nc1ccc(Cl)cc1)Nc1ccc(Cl)cc1` [Chlorohexidine-digluconate, reference compound], the LD50 in data set [1] was 1800 mg/kg.

As to `CC(C)CCCC(C)NC(=N)NC(=N)NCCCCCCNC(=N)NC(=N)NC(C)CCCC(C)C` (stereo not shown) [Compound 1, 1,1'-hexamethylene-bis-[5-(1,5-dimethylhexyl)biguanide]dihydrochloride], the LD50 in data set [1] was determined as 1690 mg/kg. In addition, the results for the “Inhibition of growth relative to chlorohexidine” value in the data set on Staph. aureus and with Aerobacter aerogenes were 4 and 16, respectively. Besides, the Plaque index in the data set on plaque [2] is 0,36.

For `N=C(NCCCCCCNC(=N)NC(=N)N1CC2CCC(CC2)C1)NC(=N)N1CC2CCC(CC2)C1` [Compound 2], the “Cytotoxic effect relative to chlorohexidine” value in the data set on human epithelial cells is recorded as 1/8. Besides, the “Inhibition of growth relative to chlorohexidine” value with Staph. aureus and in the data set with Aerobacter aerogenes was 1 each time. In addition, the Plaque index in the data set with plaque [2] is 0,58.

With `N=C(NCCCCCCNC(=N)NC(=N)NCC1CCCCC1)NC(=N)NCC1CCCCC1` [Compound 3], in the data set on human epithelial cells (setting [5]), the “Cytotoxic effect relative to chlorohexidine” value is 1/2. Further, the “Inhibition of growth relative to chlorohexidine” value in the data set on Staph. aureus worked out at 2; with Aerobacter aerogenes it was 8. Further, in the data set with plaque [2], the Plaque index is recorded as 0,19.

As for `N=C(NCCCCCCNC(=N)NC(=N)NC12CC3CC(CC(C3)C1)C2)NC(=N)NC12CC3CC(CC(C3)C1)C2` [Compound 4, 1,1'-hexamethylene-bis-[5-(1-adamantyl)biguanide]dihydrochloride], the LD50 in data set [1] was 2830 mg/kg. The “Inhibition of growth relative to chlorohexidine” value with Staph. aureus came to 16; with Aerobacter aerogenes it was 8. In addition, the Plaque index in the data set with plaque [2] is 0,36.

With `N=C(NCCCCCCNC(=N)NC(=N)NC1CC2CCC1C2)NC(=N)NC1CC2CCC1C2` (stereo not shown) [Compound 5, 1,1'-hexamethylene-bis-[5-(2-endonorbornyl]biguanide)-dihydrochloride], in the data set on human epithelial cells (setting [5]), the “Cytotoxic effect relative to chlorohexidine” value is 1/8. Further, the “Inhibition of growth relative to chlorohexidine” value in the data set with Staph. aureus is listed as 1/2; in the data set on Aerobacter aerogenes, 1/8. Moreover, in the data set with plaque [2], the Plaque index is reported as 0,50.

Regarding `CCCCCC(C)NC(=N)NC(=N)NCCCCCCNC(=N)NC(=N)NC(C)CCCCC.Cl.Cl` (stereo not shown) [Compound 6, 1,1'-hexamethylene-bis-[5-(1-methylhexyl)biguanide]-dihydrochloride], in the data set on human epithelial cells (setting [5]), the “Cytotoxic effect relative to chlorohexidine” value is recorded as 1. The “Inhibition of growth relative to chlorohexidine” value in the data set on Staph. aureus came out at 4; in the data set on Aerobacter aerogenes it was 1. For the same compound, the Plaque index in the data set with plaque [2] is given as 0,27.

For the compound `CCC(C)CC(C)NC(=N)NC(=N)NCCCCCCNC(=N)NC(=N)NC(C)CC(C)CC` (stereo not shown) [Compound 7, 1,1'-hexamethylene-bis-[5-(1,3-dimethylpenthyl)-biguanide]-dihydrochloride], in the data set on human epithelial cells (setting [5]), the “Cytotoxic effect relative to chlorohexidine” value is 1. The “Inhibition of growth relative to chlorohexidine” value is reported as 8 with Staph. aureus and 1 in the data set on Aerobacter aerogenes. In the data set on plaque [2], the Plaque index is recorded as 0,29.

Take `CC(C)CCC(C)NC(=N)NC(=N)NCCCCCCNC(=N)NC(=N)NC(C)CCC(C)C.Cl.Cl` (stereo not shown) [Compound 8, 1,1'-hexamethylene-bis-[5-(1,4-dimethylpentyl)biguanide]-dihydrochloride]: the “Cytotoxic effect relative to chlorohexidine” value in the data set with human epithelial cells (setting [5]) worked out at 1. For the same compound, the “Inhibition of growth relative to chlorohexidine” value in the data set with Staph. aureus is 8; in the data set with Aerobacter aerogenes it was 1. Besides, in the data set with plaque [2], the Plaque index is recorded as 0,70.

Consider `CCCCC(CC)CNC(=N)NC(=N)NCCCCCCNC(=N)NC(=N)NCC(CC)CCCC` (stereo not shown) [Compound 9, 1,1'-hexamethylene-bis-[5-(2-ethylhexyl)biguanide], reference compound], for which, in the data set on human epithelial cells (human epithelial cells in vitro), the “Toxicity compared with chlorohexidine (in words)” value is given as “much more toxic”. In addition, the “Cytotoxic effect relative to chlorohexidine” value in the data set on human epithelial cells (setting [5]) was determined as 4. The “Inhibition of growth relative to chlorohexidine” value in the data set with Staph. aureus was determined as 8; in the data set on Aerobacter aerogenes it was 2. Further, the “Antibacterial activity (in words)” value with bacteria is recorded as “known for having antibacterial activity”. The Plaque index in the data set on plaque [2] is reported as 0,52.

For the compound `N=C(NCCCCCCNC(=N)NC(=N)Nc1ccc(Cl)cc1)NC(=N)Nc1ccc(Cl)cc1` [chlorohexidine, 1,1'-hexamethylene-bis-[5-(4-chlorophenyl)biguanide]], the Plaque index with plaque [3] was 0,75. Besides, in the data set on bacteria, the “Antibacterial activity (in words)” value is on record as “antibacterial effect”. Moreover, in the data set on plaque [4], the “Effect against gingivitis and caries (in words)” value was “prophylactic effect against gingivitis and caries”; the “Inhibition of plaque formation (in words)” value is on record as “marked inhibiting effect on the formation of plaque”.
